Measurements reported in US11952388B2, “Crystal form of tri-cycle compound and application thereof” (FUJIAN AKEYLINK BIOTECHNOLOGY CO., LTD., priority 2018, dated 2024).

Test: Pre-stability (solid stability) test of crystal form B, HPLC analysis
Type: physicochemical
Method: [table] Note: • X indicates testing items, including: XRPD, content and related substances, day 0 samples were stored at −20° C.; • ICH indicate the illumination condition that guides the placement of the samples, i.e., illumination (total illuminance=1.2×10^6 Lux·hr/near ultraviolet=200 w·hr/m^2, with the lid open). About 10 mg of the crystal form B of the compound represented by formula (I) was weighed and placed at the bottom of a 40 mL glass bottle, and spread into a thin layer. The bottleneck was wrapped with aluminum foil paper (except for illuminated samples), and some small holes were punctured on the aluminum foil paper to ensure that the samples can fully contact the ambient air. The illuminated sample was placed at the bottom of a 40 mL glass bottle, which was placed vertically in the illuminated box with the lid open; the control sample was placed at the bottom of glass vials, which was placed vertically with the lid open, and wrapped with tin foil to protect it from light. Under each condition, 2 aliquots of sample were weighed in parallel at each time point, and an additional appropriate amount of sample (not weighed) was taken for XRPD detection. The prepared samples were placed under various conditions shown in the following Table, and samples were analyzed respectively by HPLC after reaching the time points. 1.1 Preparation of Diluent and Mobile Phase • Diluent: Acetonitrile:Water (2:1) • Example: 1000 mL of acetonitrile and 500 mL of water were mixed evenly, ultrasonically degassed, and cooled to room temperature. • Mobile phase A: 0.1% trifluoroacetic acid aqueous solution • Example: 2.0 mL of trifluoroacetic acid was added to 2 L of water and mixed well, ultrasonically degassed, and cooled to room temperature. • Mobile phase B: 100% acetonitrile The crystal form B of compound represented by formula (I) was used as control. The crystal form B of compound represented by formula (I) was placed in a glass bottle, then 5 mL of diluent was added into the bottle to a concentration of 1 mg/mL, and the solution was mix well ultrasonically. And then the mixture was diluted 5 times to obtain the control sample solution STD1. STD1 was diluted 1, 2, 4, 20 and 200 times to prepare a 1% control solution. Diluent was added to each test sample to a concentration of 10 mL, then the samples were ultrasonically dissolved. HPLC test was performed after cooling to room temperature. Meanwhile, the sample solution was diluted 5 times and mixed well, and then tested by HPLC. [table]

[1] = Illumination of Control (light-proof)

## Cc1cc2n(c1)S(=O)(=O)c1ccc(C(=O)NCC[C@H]3COCCO3)cc1NC2=O
40° C., 75% humidity, 1 month
  Assay (content of the sample): 100.6%
  TRS (sum of impurities): 1.20%
  impurity at relative retention time 0.87: 0.34%
  impurity at relative retention time 1.07: 0.07%
  impurity at relative retention time 1.12: 0.65%
  impurity at relative retention time 1.14: 0.13%
40° C., 75% humidity, 10 days
  Assay (content of the sample): 100.7%
  TRS (sum of impurities): 1.19%
  impurity at relative retention time 0.87: 0.34%
  impurity at relative retention time 1.07: 0.06%
  impurity at relative retention time 1.12: 0.65%
  impurity at relative retention time 1.14: 0.13%
60° C., 75% humidity, 1 month
  Assay (content of the sample): 100.3%
  TRS (sum of impurities): 1.21%
  impurity at relative retention time 0.87: 0.35%
  impurity at relative retention time 1.07: 0.07%
  impurity at relative retention time 1.12: 0.65%
  impurity at relative retention time 1.14: 0.13%
60° C., 75% humidity, 10 days
  Assay (content of the sample): 101.4%
  TRS (sum of impurities): 1.20%
  impurity at relative retention time 0.87: 0.35%
  impurity at relative retention time 1.07: 0.07%
  impurity at relative retention time 1.12: 0.65%
  impurity at relative retention time 1.14: 0.13%
60° C., 5 days
  Assay (content of the sample): 100.1%
  TRS (sum of impurities): 1.19%
  impurity at relative retention time 0.87: 0.35%
  impurity at relative retention time 1.07: 0.07%
  impurity at relative retention time 1.12: 0.65%
  impurity at relative retention time 1.14: 0.13%
60° C., 10 days
  Assay (content of the sample): 100.1%
  TRS (sum of impurities): 1.21%
  impurity at relative retention time 0.87: 0.36%
  impurity at relative retention time 1.07: 0.07%
  impurity at relative retention time 1.12: 0.65%
  impurity at relative retention time 1.14: 0.13%
92.5% humidity, 5 days
  Assay (content of the sample): 100.0%
  TRS (sum of impurities): 1.21%
  impurity at relative retention time 0.87: 0.36%
  impurity at relative retention time 1.07: 0.07%
  impurity at relative retention time 1.12: 0.65%
  impurity at relative retention time 1.14: 0.13%
92.5% humidity, 10 days
  Assay (content of the sample): 100.7%
  TRS (sum of impurities): 1.20%
  impurity at relative retention time 0.87: 0.35%
  impurity at relative retention time 1.07: 0.06%
  impurity at relative retention time 1.12: 0.65%
  impurity at relative retention time 1.14: 0.13%
Day 0
  Assay (content of the sample): 100.5%
  TRS (sum of impurities): 1.20%
  impurity at relative retention time 0.87: 0.35%
  impurity at relative retention time 1.07: 0.06%
  impurity at relative retention time 1.12: 0.65%
  impurity at relative retention time 1.14: 0.14%
Illumination (1 ICH, lid open)
  Assay (content of the sample): 83.5%
  TRS (sum of impurities): 9.50%
  impurity at relative retention time 0.16: 0.07%
  impurity at relative retention time 0.19: 0.32%
  impurity at relative retention time 0.24: 0.12%
  impurity at relative retention time 0.26: 0.12%
  impurity at relative retention time 0.31: 0.12%
  impurity at relative retention time 0.36: 0.19%
  impurity at relative retention time 0.38: 0.08%
  impurity at relative retention time 0.60: 0.28%
  impurity at relative retention time 0.62: 0.12%
  impurity at relative retention time 0.70: 0.10%
  impurity at relative retention time 0.78: 0.16%
  impurity at relative retention time 0.79: 0.24%
  impurity at relative retention time 0.82: 2.26%
  impurity at relative retention time 0.87: 4.49%
  impurity at relative retention time 0.89: 0.07%
  impurity at relative retention time 0.90: 0.07%
  impurity at relative retention time 1.07: <0.05%
  impurity at relative retention time 1.12: 0.52%
  impurity at relative retention time 1.14: 0.12%
  impurity at relative retention time 1.42: 0.06%
[1]
  Assay (content of the sample): 100.3%
  TRS (sum of impurities): 1.18%
  impurity at relative retention time 0.87: 0.34%
  impurity at relative retention time 1.07: 0.07%
  impurity at relative retention time 1.12: 0.64%
  impurity at relative retention time 1.14: 0.13%
High temperature and high humidity conditions
  solid stability (conclusion in words): stable under high temperature and high humidity conditions
